Positions of bridges follow the written chain, without caps; N, C: chain ends. Non-standard residues stand in square brackets, D forms with d. Residues, ends and D or L forms follow the SMILES beside them. ξ: configuration not given here. Bip = N[C@@H](Cc1ccc(-c2ccccc2)cc1)C(=O)O; hhPhe = N[C@@H](CCCc1ccccc1)C(=O)O; h4Pal = N[C@@H](CCc1ccncc1)C(=O)O; 4Pal = N[C@@H](Cc1ccncc1)C(=O)O; ξIle = CC[C@H](C)C(N)C(=O)O; Orn = NCCC[C@H](N)C(=O)O; Sar = CNCC(=O)O
The molecules below were run against TNFα (Homo sapiens, UniProt P01375) (assay: TNF-Induced HEK-Blue Assay). Settings: not given.
TNFα, sequence (P01375 77-233 limits assumed): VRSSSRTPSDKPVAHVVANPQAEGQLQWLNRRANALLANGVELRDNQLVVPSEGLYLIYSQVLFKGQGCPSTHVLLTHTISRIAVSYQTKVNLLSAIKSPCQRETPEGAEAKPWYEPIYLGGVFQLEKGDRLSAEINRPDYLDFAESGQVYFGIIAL
Assay type: cell-based
In the case of `CC[C@H](C)[C@@H]1NC(=O)[C@@H]2CCCN2C(=O)[C@H](C(C)C)NC(=O)[C@H](CCCNC(=N)N)NC(=O)[C@H](CC(=O)O)NC(=O)[C@@H]2CCCN2C(=O)CN(C)C(=O)[C@H](Cc2ccc(-c3ccccc3)cc2)NC(=O)[C@H](Cc2ccc(-c3ccccc3)cc2)NC(=O)[C@H](Cc2ccccc2)NC(=O)CSC[C@@H](C(=O)NCC(N)=O)NC(=O)[C@H](CC(C)C)NC(=O)[C@H](CCCNC(=N)N)NC1=O` [Example 20] ({CH2CO}-F[Bip][Bip][Sar]PDRVPIRLCG-NH2; thioether N-13), the IC50 is reported as 200 to 2000 nM.

Same assay, conditions: HEK-Blue-CD40L cells, NF-kB-driven secreted alkaline phosphatase reporter; TNFα 0.5 ng/ml; 18 h; read-out: TNF induced HEK-Blue assay IC50 value
In the case of `CC(C)C[C@@H]1NC(=O)[C@H](CCCNC(=N)N)NC(=O)[C@H](C(C)C)NC(=O)[C@@H]2CCCN2C(=O)[C@H](C(C)C)NC(=O)[C@H](CCCNC(=N)N)NC(=O)[C@H](CC(=O)O)NC(=O)[C@@H]2CCCN2C(=O)CN(C)C(=O)[C@H](Cc2ccc(-c3ccccc3)cc2)NC(=O)[C@H](Cc2ccc(-c3ccccc3)cc2)NC(=O)[C@H](Cc2ccccc2)NC(=O)CSC[C@@H](C(=O)NCC(N)=O)NC1=O` [Example 1] ({CH2CO}-F[Bip][Bip][Sar]PDRVPVRLCG-NH2; thioether N-13), the IC50 is reported as 200 to 2000 nM. Molecule `CC(C)C[C@@H]1NC(=O)[C@H](CCCN)NC(=O)[C@H](C(C)C)NC(=O)[C@@H]2CCCN2C(=O)[C@H](C(C)C)NC(=O)[C@H](CCCNC(=N)N)NC(=O)[C@H](CC(=O)O)NC(=O)[C@@H]2CCCN2C(=O)CN(C)C(=O)[C@H](Cc2ccc(-c3ccccc3)cc2)NC(=O)[C@H](Cc2ccc(-c3ccccc3)cc2)NC(=O)[C@H](Cc2ccccc2)NC(=O)CSC[C@@H](C(=O)NCC(N)=O)NC1=O` [Example 2] ({CH2CO}-F[Bip][Bip][Sar]PDRVPV[Orn]LCG-NH2; thioether N-13) has an IC50 of 200 to 2000 nM. `CC(C)C[C@@H]1NC(=O)[C@H](CCCCN)NC(=O)[C@H](C(C)C)NC(=O)[C@@H]2CCCN2C(=O)[C@H](C(C)C)NC(=O)[C@H](CCCNC(=N)N)NC(=O)[C@H](CC(=O)O)NC(=O)[C@@H]2CCCN2C(=O)CN(C)C(=O)[C@H](Cc2ccc(-c3ccccc3)cc2)NC(=O)[C@H](Cc2ccc(-c3ccccc3)cc2)NC(=O)[C@H](Cc2ccccc2)NC(=O)CSC[C@@H](C(=O)NCC(N)=O)NC1=O` [Example 3] ({CH2CO}-F[Bip][Bip][Sar]PDRVPVKLCG-NH2; thioether N-13) gave an IC50 of 200 to 2000 nM. `CC(C)C[C@@H]1NC(=O)[C@H](CCCNC(=N)N)NC(=O)[C@H](C(C)C)NC(=O)[C@@H]2CCCN2C(=O)[C@H](C(C)C)NC(=O)[C@H](CCCNC(=N)N)NC(=O)[C@H](CC(=O)O)NC(=O)[C@@H]2CCCN2C(=O)CN(C)C(=O)[C@H](Cc2ccc(-c3ccccc3)cc2)NC(=O)[C@H](Cc2ccc(-c3ccccc3)cc2)NC(=O)[C@H](Cc2ccc(O)cc2)NC(=O)CSC[C@@H](C(=O)NCC(N)=O)NC1=O` [Example 4] ({CH2CO}-Y[Bip][Bip][Sar]PDRVPVRLCG-NH2; thioether N-13) was tested, and the IC50 was 200 to 2000 nM. `CC(C)C[C@@H]1NC(=O)[C@H](CCCNC(=N)N)NC(=O)[C@H](C(C)C)NC(=O)[C@@H]2CCCN2C(=O)[C@H](C(C)C)NC(=O)[C@H](CCCNC(=N)N)NC(=O)[C@H](CC(=O)O)NC(=O)[C@@H]2CCCN2C(=O)CN(C)C(=O)[C@H](Cc2ccc(-c3ccccc3)cc2)NC(=O)[C@H](Cc2ccc(-c3ccccc3)cc2)NC(=O)[C@H](Cc2c[nH]c3ccccc23)NC(=O)CSC[C@@H](C(=O)NCC(N)=O)NC1=O` [Example 5] ({CH2CO}-W[Bip][Bip][Sar]PDRVPVRLCG-NH2; thioether N-13) gave an IC50 of 200 to 2000 nM. `CC(C)C[C@@H]1NC(=O)[C@H](CCCNC(=N)N)NC(=O)[C@H](C(C)C)NC(=O)[C@@H]2CCCN2C(=O)[C@H](C(C)C)NC(=O)[C@H](CCCNC(=N)N)NC(=O)[C@H](CC(=O)O)NC(=O)[C@@H]2CCCN2C(=O)CN(C)C(=O)[C@H](Cc2ccc(-c3ccccc3)cc2)NC(=O)[C@H](Cc2ccc(-c3ccccc3)cc2)NC(=O)[C@H](CCCCN)NC(=O)CSC[C@@H](C(=O)NCC(N)=O)NC1=O` [Example 6] ({CH2CO}-K[Bip][Bip][Sar]PDRVPVRLCG-NH2; thioether N-13) gave an IC50 of 200 to 2000 nM. `CC[C@H](C)C1NC(=O)CSC[C@@H](C(=O)NCC(N)=O)NC(=O)[C@H](CC(C)C)NC(=O)[C@H](CCCNC(=N)N)NC(=O)[C@H](C(C)C)NC(=O)[C@@H]2CCCN2C(=O)[C@H](C(C)C)NC(=O)[C@H](CCCNC(=N)N)NC(=O)[C@H](CC(=O)O)NC(=O)[C@@H]2CCCN2C(=O)CN(C)C(=O)[C@H](Cc2ccc(-c3ccccc3)cc2)NC(=O)[C@H](Cc2ccc(-c3ccccc3)cc2)NC1=O` (stereo partly drawn) [Example 7] ({CH2CO}-[ξIle][Bip][Bip][Sar]PDRVPVRLCG-NH2; thioether N-13) was tested, and the IC50 was 200 to 2000 nM. `CC(C)C[C@@H]1NC(=O)CSC[C@@H](C(=O)NCC(N)=O)NC(=O)[C@H](CC(C)C)NC(=O)[C@H](CCCNC(=N)N)NC(=O)[C@H](C(C)C)NC(=O)[C@@H]2CCCN2C(=O)[C@H](C(C)C)NC(=O)[C@H](CCCNC(=N)N)NC(=O)[C@H](CC(=O)O)NC(=O)[C@@H]2CCCN2C(=O)CN(C)C(=O)[C@H](Cc2ccc(-c3ccccc3)cc2)NC(=O)[C@H](Cc2ccc(-c3ccccc3)cc2)NC1=O` [Example 8] ({CH2CO}-L[Bip][Bip][Sar]PDRVPVRLCG-NH2; thioether N-13) gave an IC50 of 200 to 2000 nM. `CC(C)C[C@@H]1NC(=O)[C@H](CCCNC(=N)N)NC(=O)[C@H](C(C)C)NC(=O)[C@@H]2CCCN2C(=O)[C@H](C(C)C)NC(=O)[C@H](CCCNC(=N)N)NC(=O)[C@H](CC(=O)O)NC(=O)[C@@H]2CCCN2C(=O)CN(C)C(=O)[C@H](Cc2ccc(-c3ccccc3)cc2)NC(=O)[C@H](Cc2ccc(-c3ccccc3)cc2)NC(=O)[C@H](C(C)C)NC(=O)CSC[C@@H](C(=O)NCC(N)=O)NC1=O` [Example 9] ({CH2CO}-V[Bip][Bip][Sar]PDRVPVRLCG-NH2; thioether N-13) gave an IC50 of 200 to 2000 nM. `CC(C)C[C@@H]1NC(=O)[C@H](CCCNC(=N)N)NC(=O)[C@H](C(C)C)NC(=O)[C@@H]2CCCN2C(=O)[C@H](C(C)C)NC(=O)[C@H](CCCNC(=N)N)NC(=O)[C@H](CC(=O)O)NC(=O)[C@@H]2CCCN2C(=O)CN(C)C(=O)[C@H](Cc2ccc(-c3ccccc3)cc2)NC(=O)[C@H](Cc2ccc(-c3ccccc3)cc2)NC(=O)[C@H](CCc2ccncc2)NC(=O)CSC[C@@H](C(=O)NCC(N)=O)NC1=O` [Example 10] ({CH2CO}-[h4Pal][Bip][Bip][Sar]PDRVPVRLCG-NH2; thioether N-13) was tested, and the IC50 was 200 to 2000 nM. In the case of `CC(C)C[C@@H]1NC(=O)[C@H](CCCNC(=N)N)NC(=O)[C@H](C(C)C)NC(=O)[C@@H]2CCCN2C(=O)[C@H](C(C)C)NC(=O)[C@H](CCCNC(=N)N)NC(=O)[C@H](CC(=O)O)NC(=O)[C@@H]2CCCN2C(=O)CN(C)C(=O)[C@H](Cc2ccc(-c3ccccc3)cc2)NC(=O)[C@H](Cc2ccc(-c3ccccc3)cc2)NC(=O)[C@H](Cc2ccncc2)NC(=O)CSC[C@@H](C(=O)NCC(N)=O)NC1=O` [Example 11] ({CH2CO}-[4Pal][Bip][Bip][Sar]PDRVPVRLCG-NH2; thioether N-13), the IC50 is reported as 200 to 2000 nM. In the case of `CC(C)C[C@@H]1NC(=O)[C@H](CCCNC(=N)N)NC(=O)[C@H](C(C)C)NC(=O)[C@@H]2CCCN2C(=O)[C@H](C(C)C)NC(=O)[C@H](CCCNC(=N)N)NC(=O)[C@H](CC(=O)O)NC(=O)[C@@H]2CCCN2C(=O)CN(C)C(=O)[C@H](Cc2ccc(-c3ccccc3)cc2)NC(=O)[C@H](Cc2ccc(-c3ccccc3)cc2)NC(=O)[C@H](CCCc2ccccc2)NC(=O)CSC[C@@H](C(=O)NCC(N)=O)NC1=O` [Example 12] ({CH2CO}-[hhPhe][Bip][Bip][Sar]PDRVPVRLCG-NH2; thioether N-13), the IC50 is reported as 200 to 2000 nM. `CC(C)C[C@@H]1NC(=O)[C@H](CCCNC(=N)N)NC(=O)[C@H](C(C)C)NC(=O)[C@@H]2CCCN2C(=O)[C@H](Cc2ccc(O)cc2)NC(=O)[C@H](CCCNC(=N)N)NC(=O)[C@H](CC(=O)O)NC(=O)[C@@H]2CCCN2C(=O)CN(C)C(=O)[C@H](Cc2ccc(-c3ccccc3)cc2)NC(=O)[C@H](Cc2ccc(-c3ccccc3)cc2)NC(=O)[C@H](Cc2ccccc2)NC(=O)CSC[C@@H](C(=O)NCC(N)=O)NC1=O` [Example 15] ({CH2CO}-F[Bip][Bip][Sar]PDRYPVRLCG-NH2; thioether N-13) gave an IC50 of 200 to 2000 nM. Molecule `CC(C)C[C@@H]1NC(=O)[C@H](CCCNC(=N)N)NC(=O)[C@H](C(C)C)NC(=O)CN(C)C(=O)[C@H](C(C)C)NC(=O)[C@H](CCCNC(=N)N)NC(=O)[C@H](CC(=O)O)NC(=O)[C@@H]2CCCN2C(=O)CN(C)C(=O)[C@H](Cc2ccc(-c3ccccc3)cc2)NC(=O)[C@H](Cc2ccc(-c3ccccc3)cc2)NC(=O)[C@H](Cc2ccccc2)NC(=O)CSC[C@@H](C(=O)NCC(N)=O)NC1=O` [Example 16] ({CH2CO}-F[Bip][Bip][Sar]PDRV[Sar]VRLCG-NH2; thioether N-13) has an IC50 of 200 to 2000 nM. In the case of `CC(C)C[C@@H]1NC(=O)[C@H](CCCNC(=N)N)NC(=O)[C@H](C(C)C)NC(=O)[C@H](C(C)C)NC(=O)[C@H](C(C)C)NC(=O)[C@H](CCCNC(=N)N)NC(=O)[C@H](CC(=O)O)NC(=O)[C@@H]2CCCN2C(=O)CN(C)C(=O)[C@H](Cc2ccc(-c3ccccc3)cc2)NC(=O)[C@H](Cc2ccc(-c3ccccc3)cc2)NC(=O)[C@H](Cc2ccccc2)NC(=O)CSC[C@@H](C(=O)NCC(N)=O)NC1=O` [Example 17] ({CH2CO}-F[Bip][Bip][Sar]PDRVVVRLCG-NH2; thioether N-13), the IC50 is reported as 200 to 2000 nM. In the case of `CC(C)C[C@@H]1NC(=O)[C@H](CCC(N)=O)NC(=O)[C@H](C(C)C)NC(=O)[C@@H]2CCCN2C(=O)[C@H](C(C)C)NC(=O)[C@H](CCCNC(=N)N)NC(=O)[C@H](CC(=O)O)NC(=O)[C@@H]2CCCN2C(=O)CN(C)C(=O)[C@H](Cc2ccc(-c3ccccc3)cc2)NC(=O)[C@H](Cc2ccc(-c3ccccc3)cc2)NC(=O)[C@H](Cc2ccccc2)NC(=O)CSC[C@@H](C(=O)NCC(N)=O)NC1=O` [Example 18] ({CH2CO}-F[Bip][Bip][Sar]PDRVPVQLCG-NH2; thioether N-13), the IC50 is reported as 200 to 2000 nM. In the case of `CC[C@H](C)[C@@H]1NC(=O)[C@H](C(C)C)NC(=O)[C@@H]2CCCN2C(=O)[C@H](C(C)C)NC(=O)[C@H](CCCNC(=N)N)NC(=O)[C@H](CC(=O)O)NC(=O)[C@H](Cc2ccc(O)cc2)NC(=O)CN(C)C(=O)[C@H](Cc2ccc(-c3ccccc3)cc2)NC(=O)[C@H](Cc2ccc(-c3ccccc3)cc2)NC(=O)[C@H](Cc2ccccc2)NC(=O)CSC[C@@H](C(=O)NCC(N)=O)NC(=O)[C@H](CC(C)C)NC1=O` [Example 19] ({CH2CO}-F[Bip][Bip][Sar]YDRVPVILCG-NH2; thioether N-13), the IC50 is reported as 200 to 2000 nM.
